{"source": "ChEMBL document CHEMBL3774317", "about": "“Design and synthesis of novel tamoxifen analogues that avoid CYP2D6 metabolism” (Eur J Med Chem, 2016)", "key": {"K562": {"tested_on": "K562", "assay": "Cytotoxicity against human K562 cells assessed as cell growth at 10^-8 M after 48 hrs by SRB assay", "format": "functional", "conditions": "K562, 48 h, read-out: Activity"}, "[1]": {"assay": "Cytotoxicity against human RXF393 cells assessed as cell growth at 10^-8 M after 48 hrs by SRB assay", "format": "functional", "conditions": "RXF 393, 48 h, read-out: Activity"}, "[2]": {"assay": "Cytotoxicity against human COLO205 cells assessed as cell growth at 10^-6 M after 48 hrs by SRB assay", "format": "functional", "conditions": "COLO 205, 48 h, read-out: Activity"}, "[3]": {"assay": "Cytotoxicity against human IGROV1 cells assessed as cell growth at 10^-4 M after 48 hrs by SRB assay", "format": "functional", "conditions": "IGROV-1, 48 h, read-out: Activity"}, "NCI-H322M": {"tested_on": "NCI-H322M", "assay": "Cytotoxicity against human NCI-H322M cells assessed as cell growth at 10^-7 M after 48 hrs by SRB assay", "format": "functional", "conditions": "read-out: Activity"}, "[4]": {"assay": "Cytotoxicity against human HL-60(TB) cells assessed as cell growth at 10^-6 M after 48 hrs by SRB assay", "format": "functional", "conditions": "HL-60, 48 h, read-out: Activity"}, "SK-MEL-2 [5]": {"tested_on": "SK-MEL-2", "assay": "Cytotoxicity against human SK-MEL-2 cells assessed as cell growth at 10^-5 M after 48 hrs by SRB assay", "format": "functional", "conditions": "SK-MEL-2, 48 h, read-out: Activity"}, "CCRF-CEM": {"tested_on": "CCRF-CEM", "assay": "Cytotoxicity against human CCRF-CEM cells assessed as cell growth at 10^-4 M after 48 hrs by SRB assay", "format": "functional", "conditions": "read-out: Activity"}, "SN12C": {"tested_on": "SN12C", "assay": "Cytotoxicity against human SN12C cells assessed as cell growth at 10^-8 M after 48 hrs by SRB assay", "format": "functional", "conditions": "read-out: Activity"}, "[6]": {"assay": "Cytotoxicity against human HCC2998 cells assessed as cell growth at 10^-5 M after 48 hrs by SRB assay", "format": "functional", "conditions": "HCC 2998, 48 h, read-out: Activity"}, "[7]": {"assay": "Cytotoxicity against human OVCAR8 cells assessed as cell growth at 10^-6 M after 48 hrs by SRB assay", "format": "functional", "conditions": "OVCAR-8, 48 h, read-out: Activity"}, "NCI-H460": {"tested_on": "NCI-H460", "assay": "Cytotoxicity against human NCI-H460 cells assessed as cell growth at 10^-4 M after 48 hrs by SRB assay", "format": "functional", "conditions": "NCI-H460, 48 h, read-out: Activity"}, "Estrogen receptor beta": {"biological_target": "Estrogen receptor beta (Homo sapiens, UniProt Q92731)", "sequence (Q92731 whole entry)": "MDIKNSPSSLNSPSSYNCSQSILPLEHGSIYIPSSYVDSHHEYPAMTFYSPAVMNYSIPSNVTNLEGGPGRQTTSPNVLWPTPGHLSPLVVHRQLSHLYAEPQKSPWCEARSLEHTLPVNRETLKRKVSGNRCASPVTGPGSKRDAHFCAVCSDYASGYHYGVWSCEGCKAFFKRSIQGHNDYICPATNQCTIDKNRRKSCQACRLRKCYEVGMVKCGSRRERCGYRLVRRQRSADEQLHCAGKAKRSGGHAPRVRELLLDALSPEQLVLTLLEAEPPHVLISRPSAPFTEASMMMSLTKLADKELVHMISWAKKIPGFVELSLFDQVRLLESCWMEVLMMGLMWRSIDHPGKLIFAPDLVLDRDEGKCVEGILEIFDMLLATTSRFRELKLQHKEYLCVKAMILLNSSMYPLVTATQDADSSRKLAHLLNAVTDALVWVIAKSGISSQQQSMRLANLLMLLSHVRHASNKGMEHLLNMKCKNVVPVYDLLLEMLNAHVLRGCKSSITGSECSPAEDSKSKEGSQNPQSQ", "description": "Displacement of [3H]-E2 from human ER-beta incubated for 16 to 20 hrs by liquid scintillation counting analysis"}, "786-0": {"tested_on": "786-0", "assay": "Cytotoxicity against human 786-0 cells assessed as cell growth at 10^-4 M after 48 hrs by SRB assay", "format": "functional", "conditions": "786-0, 48 h, read-out: Activity"}, "[8]": {"assay": "Cytotoxicity against human LOXIMVI cells assessed as cell growth at 10^-5 M after 48 hrs by SRB assay", "format": "functional", "conditions": "LOX IMVI, read-out: Activity"}, "[9]": {"assay": "Cytotoxicity against human Hs 578T cells assessed as cell growth at 10^-6 M after 48 hrs by SRB assay", "format": "functional", "conditions": "read-out: Activity"}, "[10]": {"assay": "Cytotoxicity against human HOP62 cells assessed as cell growth at 10^-4 M after 48 hrs by SRB assay", "format": "functional", "conditions": "HOP-62, 48 h, read-out: Activity"}, "[11]": {"assay": "Cytotoxicity against human LOXIMVI cells assessed as cell growth at 10^-6 M after 48 hrs by SRB assay", "format": "functional", "conditions": "LOX IMVI, read-out: Activity"}, "HT-29": {"tested_on": "HT-29", "assay": "Cytotoxicity against human HT-29 cells assessed as cell growth at 50 nM after 48 hrs by SRB assay", "format": "functional", "conditions": "HT-29, 48 h, read-out: Activity"}, "[12]": {"assay": "Cytotoxicity against human SW620 cells assessed as cell growth at 50 uM after 48 hrs by SRB assay", "format": "functional", "conditions": "SW-620, 48 h, read-out: Activity"}, "[13]": {"assay": "Cytotoxicity against human COLO205 cells assessed as cell growth at 5 uM after 48 hrs by SRB assay", "format": "functional", "conditions": "COLO 205, 48 h, read-out: Activity"}, "MDA-MB-435": {"tested_on": "MDA-MB-435", "assay": "Cytotoxicity against human MDA-MB-435 cells assessed as cell growth at 0.5 uM after 48 hrs by SRB assay", "format": "functional", "conditions": "MDA-MB-435, 48 h, read-out: Activity"}, "[14]": {"assay": "Cytotoxicity against human OVCAR3 cells assessed as cell growth at 5 uM after 48 hrs by SRB assay", "format": "functional", "conditions": "OVCAR-3, 48 h, read-out: Activity"}, "M14": {"tested_on": "M14", "assay": "Cytotoxicity against human M14 cells assessed as cell growth at 5 nM after 48 hrs by SRB assay", "format": "functional", "conditions": "M14, 48 h, read-out: Activity"}, "A549": {"tested_on": "A549", "assay": "Cytotoxicity against human A549 cells assessed as cell growth at 50 nM after 48 hrs by SRB assay", "format": "functional", "conditions": "A549, 48 h, read-out: Activity"}, "[15]": {"assay": "Cytotoxicity against human HCC2998 cells assessed as cell growth at 50 nM after 48 hrs by SRB assay", "format": "functional", "conditions": "HCC 2998, 48 h, read-out: Activity"}, "SK-MEL-2 [16]": {"tested_on": "SK-MEL-2", "assay": "Cytotoxicity against human SK-MEL-2 cells assessed as cell growth at 50 nM after 48 hrs by SRB assay", "format": "functional", "conditions": "SK-MEL-2, 48 h, read-out: Activity"}, "[17]": {"assay": "Cytotoxicity against human HCT116 cells assessed as cell growth at 50 uM after 48 hrs by SRB assay", "format": "functional", "conditions": "HCT-116, 48 h, read-out: Activity"}, "[18]": {"assay": "Cytotoxicity against human UACC62 cells assessed as cell growth at 0.5 uM after 48 hrs by SRB assay", "format": "functional", "conditions": "UACC-62, 48 h, read-out: Activity"}, "[19]": {"assay": "Cytotoxicity against human TK10 cells assessed as cell growth at 5 uM after 48 hrs by SRB assay", "format": "functional", "conditions": "TK-10, 48 h, read-out: Activity"}, "NCI-H522": {"tested_on": "NCI-H522", "assay": "Cytotoxicity against human NCI-H522 cells assessed as cell growth at 0.5 uM after 48 hrs by SRB assay", "format": "functional", "conditions": "NCI-H522, 48 h, read-out: Activity"}, "[20]": {"assay": "Cytotoxicity against human COLO205 cells assessed as cell growth at 5 nM after 48 hrs by SRB assay", "format": "functional", "conditions": "COLO 205, 48 h, read-out: Activity"}, "[21]": {"assay": "Cytotoxicity against human SF268 cells assessed as cell growth at 0.5 uM after 48 hrs by SRB assay", "format": "functional", "conditions": "SF-268, 48 h, read-out: Activity"}, "[22]": {"assay": "Cytotoxicity against human SNB19 cells assessed as cell growth at 5 nM after 48 hrs by SRB assay", "format": "functional", "conditions": "SNB-19, 48 h, read-out: Activity"}, "SR": {"tested_on": "SR", "assay": "Cytotoxicity against human SR cells assessed as cell growth at 50 nM after 48 hrs by SRB assay", "format": "functional", "conditions": "read-out: Activity"}, "[23]": {"assay": "Cytotoxicity against human HCT15 cells assessed as cell growth at 5 nM after 48 hrs by SRB assay", "format": "functional", "conditions": "HCT-15, 48 h, read-out: Activity"}, "[24]": {"assay": "Cytotoxicity against human SNB19 cells assessed as cell growth at 50 nM after 48 hrs by SRB assay", "format": "functional", "conditions": "SNB-19, 48 h, read-out: Activity"}, "T47D [25]": {"tested_on": "T47D", "assay": "Cytotoxicity against human T47D cells assessed as cell growth at 5 uM after 48 hrs by SRB assay", "format": "functional", "conditions": "read-out: Activity"}, "T47D [26]": {"tested_on": "T47D", "assay": "Cytotoxicity against human T47D cells assessed as cell growth at 50 nM after 48 hrs by SRB assay", "format": "functional", "conditions": "read-out: Activity"}, "[27]": {"assay": "Cytotoxicity against human HCC2998 cells assessed as cell growth at 0.5 uM after 48 hrs by SRB assay", "format": "functional", "conditions": "HCC 2998, 48 h, read-out: Activity"}, "[28]": {"assay": "Cytotoxicity against human UO31 cells assessed as cell growth at 50 uM after 48 hrs by SRB assay", "format": "functional", "conditions": "UO-31, 48 h, read-out: Activity"}, "[29]": {"assay": "Cytotoxicity against human OVCAR3 cells assessed as cell growth at 5 nM after 48 hrs by SRB assay", "format": "functional", "conditions": "OVCAR-3, 48 h, read-out: Activity"}}, "data": [{"smiles": "C/C(=C(/c1ccc(O)cc1)c1ccc(OCCN2CCCC2)cc1)c1ccccc1", "values": [{"measurement": "growth at 0.01 µM", "setting": "K562", "value": 99, "unit": "%"}, {"measurement": "growth at 0.01 µM", "setting": "[1]", "value": 96, "unit": "%"}, {"measurement": "growth at 1 µM", "setting": "[2]", "value": 88, "unit": "%"}, {"measurement": "growth at 100 µM", "setting": "[3]", "value": -54, "unit": "%"}, {"measurement": "growth at 0.1 µM", "setting": "NCI-H322M", "value": 95, "unit": "%"}, {"measurement": "growth at 1 µM", "setting": "[4]", "value": 90, "unit": "%"}, {"measurement": "growth at 10 µM", "setting": "SK-MEL-2 [5]", "value": -67, "unit": "%"}, {"measurement": "growth at 100 µM", "setting": "CCRF-CEM", "value": -71, "unit": "%"}, {"measurement": "growth at 0.01 µM", "setting": "SN12C", "value": 101, "unit": "%"}, {"measurement": "growth at 10 µM", "setting": "[6]", "value": -25, "unit": "%"}, {"measurement": "growth at 1 µM", "setting": "[7]", "value": 98, "unit": "%"}, {"measurement": "growth at 100 µM", "setting": "NCI-H460", "value": -92, "unit": "%"}, {"measurement": "IC50", "setting": "Estrogen receptor beta", "value": 40, "unit": "nM"}, {"measurement": "growth at 100 µM", "setting": "786-0", "value": -85, "unit": "%"}, {"measurement": "growth at 10 µM", "setting": "[8]", "value": -86, "unit": "%"}, {"measurement": "growth at 1 µM", "setting": "[9]", "value": 95, "unit": "%"}, {"measurement": "growth at 100 µM", "setting": "[10]", "value": -86, "unit": "%"}, {"measurement": "growth at 1 µM", "setting": "[11]", "value": 92, "unit": "%"}]}, {"smiles": "CCCCCCCCCC(=O)Oc1ccc(/C(=C(/C)c2ccccc2)c2ccc(OCCN3CCCC3)cc2)cc1", "values": [{"measurement": "growth at 0.05 µM", "setting": "HT-29", "value": 98, "unit": "%"}, {"measurement": "growth at 50 µM", "setting": "[12]", "value": -97, "unit": "%"}, {"measurement": "growth at 5 µM", "setting": "[13]", "value": 79, "unit": "%"}, {"measurement": "growth at 0.5 µM", "setting": "MDA-MB-435", "value": 67, "unit": "%"}, {"measurement": "growth at 5 µM", "setting": "[14]", "value": 86, "unit": "%"}, {"measurement": "growth at 0.005 µM", "setting": "M14", "value": 98, "unit": "%"}, {"measurement": "growth at 0.05 µM", "setting": "A549", "value": 102, "unit": "%"}, {"measurement": "growth at 0.05 µM", "setting": "[15]", "value": 98, "unit": "%"}, {"measurement": "growth at 0.05 µM", "setting": "SK-MEL-2 [16]", "value": 101, "unit": "%"}, {"measurement": "growth at 50 µM", "setting": "[17]", "value": -87, "unit": "%"}, {"measurement": "growth at 0.5 µM", "setting": "[18]", "value": 64, "unit": "%"}, {"measurement": "growth at 5 µM", "setting": "[19]", "value": 95, "unit": "%"}, {"measurement": "growth at 0.5 µM", "setting": "NCI-H522", "value": 98, "unit": "%"}, {"measurement": "growth at 0.005 µM", "setting": "[20]", "value": 104, "unit": "%"}, {"measurement": "growth at 0.5 µM", "setting": "[21]", "value": 73, "unit": "%"}, {"measurement": "growth at 0.005 µM", "setting": "[22]", "value": 98, "unit": "%"}, {"measurement": "growth at 0.05 µM", "setting": "SR", "value": 87, "unit": "%"}, {"measurement": "growth at 0.005 µM", "setting": "[23]", "value": 98, "unit": "%"}, {"measurement": "growth at 0.05 µM", "setting": "[24]", "value": 98, "unit": "%"}, {"measurement": "growth at 5 µM", "setting": "T47D [25]", "value": 52, "unit": "%"}, {"measurement": "growth at 0.05 µM", "setting": "T47D [26]", "value": 62, "unit": "%"}, {"measurement": "growth at 0.5 µM", "setting": "[27]", "value": 88, "unit": "%"}, {"measurement": "growth at 50 µM", "setting": "[28]", "value": -85, "unit": "%"}, {"measurement": "growth at 0.005 µM", "setting": "[29]", "value": 108, "unit": "%"}]}]}
